{"source": "ChEMBL document CHEMBL3525933", "about": "(Drug Metab Dispos, 2012)", "key": {"[1]": {"assay": "Drug excretion in pseudo-germ free Wistar rat feces assessed as 1,7-dihydroxyxanthone metabolite level at 400 mg/kg, po administered as single dose by HPLC-DAD analysis", "format": "ADME, organism-based", "set-up": "dose 400 mg/kg, route oral", "details": "in vivo; call rule not given here"}, "[2]": {"assay": "Drug excretion in conventional Wistar rat urine assessed as unchanged drug level at 400 mg/kg, po administered as single dose by HPLC-DAD analysis", "format": "ADME, organism-based", "set-up": "dose 400 mg/kg, route oral", "details": "in vivo"}, "[3]": {"assay": "Drug excretion in pseudo-germ free Wistar rat urine assessed as 1,7-dihydroxyxanthone metabolite level at 400 mg/kg, po administered as single dose by HPLC-DAD analysis", "format": "ADME, organism-based", "set-up": "dose 400 mg/kg, route oral", "details": "in vivo"}, "[4]": {"assay": "Elimination half life in conventional Wistar rat at 400 mg/kg, po administered as single dose by HPLC-DAD analysis", "format": "ADME, organism-based", "set-up": "dose 400 mg/kg, route oral", "details": "in vivo, read-out: beta t1/2 (converted)"}, "[5]": {"assay": "Drug excretion in streptozotocin-induced diabetic Wistar rat feces assessed as 1,7-dihydroxyxanthone metabolite level at 400 mg/kg, po administered as single dose by HPLC-DAD analysis", "format": "ADME, organism-based", "set-up": "dose 400 mg/kg, route oral", "details": "in vivo"}, "[6]": {"system": "Plasma", "assay": "Stability in Wistar rat plasma measured for 24 hrs at room temperature by HPLC-DAD analysis", "format": "ADME, cell-free"}, "[7]": {"system": "Plasma", "assay": "Drug uptake in pseudo-germ free Wistar rat plasma at 400 mg/kg, po administered as single dose by HPLC-DAD analysis", "format": "ADME, organism-based", "set-up": "dose 400 mg/kg, route oral", "details": "in vivo"}, "[8]": {"assay": "Apparent oral clearance in conventional Wistar rat at 400 mg/kg, po administered as single dose by HPLC-DAD analysis", "format": "ADME, organism-based", "set-up": "dose 400 mg/kg, route oral", "details": "in vivo"}, "[9]": {"assay": "MRT(0 to infinity) in streptozotocin-induced diabetic Wistar rat at 400 mg/kg, po administered as single dose by HPLC-DAD analysis", "format": "ADME, organism-based", "set-up": "dose 400 mg/kg, route oral", "details": "in vivo"}, "[10]": {"assay": "Drug excretion in pseudo-germ free Wistar rat feces assessed as unchanged drug level at 400 mg/kg, po administered as single dose by HPLC-DAD analysis", "format": "ADME, organism-based", "set-up": "dose 400 mg/kg, route oral", "details": "in vivo"}, "[11]": {"assay": "Drug excretion in streptozotocin-induced diabetic Wistar rat feces assessed as unchanged drug level at 400 mg/kg, po administered as single dose by HPLC-DAD analysis", "format": "ADME, organism-based", "set-up": "dose 400 mg/kg, route oral", "details": "in vivo"}, "[12]": {"assay": "Drug excretion in conventional Wistar rat feces assessed as unchanged drug level at 400 mg/kg, po administered as single dose by HPLC-DAD analysis", "format": "ADME, organism-based", "set-up": "dose 400 mg/kg, route oral", "details": "in vivo"}, "[13]": {"system": "Plasma", "assay": "Stability in Wistar rat plasma measured after storage at -80 degC for 20 days by HPLC-DAD analysis", "format": "ADME, cell-free", "details": "480 h"}, "[14]": {"system": "Plasma", "assay": "Drug metabolism in Wistar rat plasma assessed as retention time by HPLC-DAD analysis", "format": "ADME, cell-free"}, "[15]": {"assay": "Cmax in pseudo-germ free Wistar rat at 400 mg/kg, po administered as single dose by HPLC-DAD analysis", "format": "ADME, organism-based", "set-up": "dose 400 mg/kg, route oral", "details": "in vivo"}, "[16]": {"assay": "Drug excretion in streptozotocin-induced diabetic Wistar rat urine assessed as norathyriol metabolite level at 400 mg/kg, po administered as single dose by HPLC-DAD analysis", "format": "ADME, organism-based", "set-up": "dose 400 mg/kg, route oral", "details": "in vivo"}, "[17]": {"assay": "AUC(0 to infinity) in conventional Wistar rat at 400 mg/kg, po administered as single dose by HPLC-DAD analysis", "format": "ADME, organism-based", "set-up": "time infinity, dose 400 mg/kg, route oral", "details": "plasma"}, "[18]": {"assay": "AUC(0 to infinity) in streptozotocin-induced diabetic Wistar rat at 400 mg/kg, po administered as single dose by HPLC-DAD analysis", "format": "ADME, organism-based", "set-up": "time infinity, dose 400 mg/kg, route oral", "details": "plasma"}, "[19]": {"assay": "Tmax in pseudo-germ free Wistar rat at 400 mg/kg, po administered as single dose by HPLC-DAD analysis", "format": "ADME, organism-based", "set-up": "dose 400 mg/kg, route oral", "details": "in vivo"}, "[20]": {"assay": "Drug excretion in pseudo-germ free Wistar rat urine assessed as unchanged drug level at 400 mg/kg, po administered as single dose by HPLC-DAD analysis", "format": "ADME, organism-based", "set-up": "dose 400 mg/kg, route oral", "details": "in vivo"}, "[21]": {"system": "Plasma", "assay": "Drug uptake in streptozotocin-induced diabetic Wistar rat plasma at 400 mg/kg, po administered as single dose by HPLC-DAD analysis", "format": "ADME, organism-based", "set-up": "dose 400 mg/kg, route oral", "details": "in vivo"}, "[22]": {"system": "Plasma", "assay": "Drug recovery in Wistar rat plasma at 100 ng/ml by HPLC-DAD analysis", "format": "ADME, cell-free"}, "[23]": {"assay": "MRT(0 to infinity) in conventional Wistar rat at 400 mg/kg, po administered as single dose by HPLC-DAD analysis", "format": "ADME, organism-based", "set-up": "dose 400 mg/kg, route oral", "details": "in vivo"}, "[24]": {"assay": "Drug excretion in conventional Wistar rat feces assessed as 1,7-dihydroxyxanthone metabolite level at 400 mg/kg, po administered as single dose by HPLC-DAD analysis", "format": "ADME, organism-based", "set-up": "dose 400 mg/kg, route oral", "details": "in vivo"}, "[25]": {"assay": "Drug excretion in conventional Wistar rat urine assessed as 1,7-dihydroxyxanthone metabolite level at 400 mg/kg, po administered as single dose by HPLC-DAD analysis", "format": "ADME, organism-based", "set-up": "dose 400 mg/kg, route oral", "details": "in vivo"}, "[26]": {"system": "Plasma", "assay": "Drug uptake in conventional Wistar rat plasma at 400 mg/kg, po administered as single dose by HPLC-DAD analysis", "format": "ADME, organism-based", "set-up": "dose 400 mg/kg, route oral", "details": "in vivo"}, "[27]": {"species_on_record": "Rattus norvegicus", "assay": "Drug retention time in Wistar rat by HPLC-DAD analysis", "format": "ADME, organism-based"}, "[28]": {"system": "Plasma", "assay": "Drug metabolism in streptozotocin-induced diabetic Wistar rat plasma assessed as 1,7-dihydroxyxanthone metabolite formation at 400 mg/kg, po administered as single dose by HPLC-DAD analysis", "format": "ADME, organism-based", "set-up": "dose 400 mg/kg, route oral", "details": "in vivo"}, "[29]": {"system": "Plasma", "assay": "Drug metabolism in streptozotocin-induced diabetic Wistar rat plasma assessed as norathyriol metabolite formation at 400 mg/kg, po administered as single dose by HPLC-DAD analysis", "format": "ADME, organism-based", "set-up": "dose 400 mg/kg, route oral", "details": "in vivo"}}}
{"smiles": "O=c1c2cc(O)c(O)cc2oc2cc(O)c([C@@H]3O[C@H](CO)[C@@H](O)[C@H](O)[C@H]3O)c(O)c12", "note": "[MANGIFERIN]", "values": [{"measurement": "Drug excretion", "setting": "[1]", "result": "metabolite_not_detected"}, {"measurement": "Drug excretion", "setting": "[2]", "result": "metabolite_detected"}, {"measurement": "Drug excretion", "setting": "[3]", "result": "metabolite_not_detected"}, {"measurement": "half-life", "setting": "[4]", "result": 2.47, "unit": "h"}, {"measurement": "Drug excretion", "setting": "[5]", "result": "metabolite_not_detected"}, {"measurement": "Stability", "setting": "[6]", "result": "Stable"}, {"measurement": "Drug uptake", "setting": "[7]", "result": "Active"}, {"measurement": "CL/F", "setting": "[8]", "result": 2030, "unit": "mL/min/kg"}, {"measurement": "MRT inf", "setting": "[9]", "result": 5.45, "unit": "h"}, {"measurement": "Drug excretion", "setting": "[10]", "result": "metabolite_detected"}, {"measurement": "Drug excretion", "setting": "[11]", "result": "metabolite_detected"}, {"measurement": "Drug excretion", "setting": "[12]", "result": "metabolite_detected"}, {"measurement": "Stability", "setting": "[13]", "result": "Stable"}, {"measurement": "Retention_time", "setting": "[14]", "result": 5.5, "unit": "min"}, {"measurement": "Cmax", "setting": "[15]", "result": 452, "unit": "ng/mL"}, {"measurement": "Drug excretion", "setting": "[16]", "result": "metabolite_detected"}, {"measurement": "AUC(0-inf)", "setting": "[17]", "result": 3820, "unit": "ng·h/mL"}, {"measurement": "AUC(0-inf)", "setting": "[18]", "result": 8950, "unit": "ng·h/mL"}, {"measurement": "Tmax", "setting": "[19]", "result": 2.89, "unit": "h"}, {"measurement": "Drug excretion", "setting": "[20]", "result": "metabolite_detected"}, {"measurement": "Drug uptake", "setting": "[21]", "result": "Active"}, {"measurement": "Drug recovery", "setting": "[22]", "result": 78.4, "unit": "%"}, {"measurement": "MRT inf", "setting": "[23]", "result": 7.77, "unit": "h"}, {"measurement": "Drug excretion", "setting": "[24]", "result": "metabolite_not_detected"}, {"measurement": "Drug excretion", "setting": "[25]", "result": "metabolite_not_detected"}, {"measurement": "Drug uptake", "setting": "[26]", "result": "Active"}, {"measurement": "Retention_time", "setting": "[27]", "result": 15.2, "unit": "min"}, {"measurement": "Drug metabolism", "setting": "[28]", "result": "metabolite_not_detected"}, {"measurement": "Drug metabolism", "setting": "[29]", "result": "metabolite_not_detected"}]}
